According to patent US20060276340A1, “HERBICIDE COMPOSITION COMPRISING PYRIBAMBENZ-PROPYL OR PYRIBAMBENZ-ISOPROPYL” (Zhejiang Chem-Tech Group Co., Ltd., priority 2003, published 2006):

Key:
Type in all cases: in vivo
[1] = test system: Alopecurus aequalis; test: greenhouse pot test, Tables 1-2
Procedure: (§1) The test soil is a formulated sandy loam soil. 9.5 centimeter diameter pots are used for herbicidal activity test.
(§2) The soil in the pot for the pre-emergence test was sprayed one day after planting. The preparation liquid for the treatment prepared by mixing individual single-herbicides was diluted with water to the desired dosage.
(§3) The pots for post-emergence treatment are placed into a greenhouse and incubated for 7 to 9 days, and then subjected to leave treatment by spraying. The preparation liquid for the treatment prepared by mixing individual single-herbicides was diluted with water to the desired dosage.
(§4) The treated pots stood for one day, then were placed in a greenhouse and watered regularly. The herbicidal activities of the compositions were evaluated by visual examination after incubating for 14 to 21 days.
(§5) The herbicidal activities of the compositions were evaluated by plant symptoms such as stunting, deformity, chlorosis, and whitening. 0 represents that the compositions have no herbicidal effect or have safety to crops. 100 represents that the weeds or crops were completely killed.

[2] = test system: Beckmannia syzigachne; test: greenhouse pot test, Tables 1-2; details: BECSY 2 leaves
Procedure: as §1, §2, §3, §4, §5

[3] = test system: Digitrria sanguinalis; test: greenhouse pot test, Tables 1-2; details: DIGSA 3 leaves
Procedure: as §1, §2, §3, §4, §5

[4] = test system: Poa annua; test: greenhouse pot test, Tables 1-2; details: POAAN 3 leaves
Procedure: as §1, §2, §3, §4, §5

[5] = test system: Polypogon fugax; test: greenhouse pot test, Tables 1-2; details: POLFU 3-4 leaves
Procedure: as §1, §2, §3, §4, §5

[6] = test system: Beckmannia syzigachne; test: greenhouse pot test, post-emergence early stage treatment; details: BECSY 2˜3 leaves
Procedure: as §1, §3, §4, §5

[7] = test system: Cerastium arvense; test: as above
Procedure: as §1, §3, §4, §5

[8] = test system: Galium aparine; test: as above
Procedure: as §1, §3, §4, §5

[9] = test system: Poa annua; test: as above
Procedure: as §1, §3, §4, §5

[10] = test system: weeds in rape field; test: weed control in rape field, descriptive statements
[11] = test system: Alopercurus japonicus; test: greenhouse pot test, post-emergence treatment; details: ALOJA
Procedure: as §1, §3, §4, §5

[12] = test system: Galium aparine; test: greenhouse pot test, post-emergence treatment; details: GALAP
Procedure: as §1, §3, §4, §5

[13] = test system: Poa annua; test: greenhouse pot test, post-emergence treatment; details: POAAN
Procedure: as §1, §3, §4, §5

[14] = test system: Veronica didyma; test: greenhouse pot test, post-emergence treatment; details: VERDI
Procedure: as §1, §3, §4, §5

[15] = test system: Alopercurus japonicus; test: greenhouse pot test, post-emergence early stage treatment; details: ALOJA
Procedure: as §1, §3, §4, §5

For `CCOC(=O)C(C)Oc1ccc(Oc2cnc3cc(Cl)ccc3n2)cc1` (centres unmarked) [quizalofop-ethyl], the “visual evaluation of weed effects” value ([1]; ALOAE 0 leaf, 6 g/ha) was 85%, the “visual evaluation of weed effects” value ([1]; ALOAE 0 leaf, 9 g/ha) was 85% and the “visual evaluation of weed effects” value ([1]; ALOAE 0 leaf, 12 g/ha) was 85%. The “visual evaluation of weed effects” value ([1]; ALOAE 0 leaf, 15 g/ha) was 85%, the “visual evaluation of weed effects” value ([1]; ALOAE 3 leaves, 6 g/ha) was 98% and the “visual evaluation of weed effects” value ([1]; ALOAE 3 leaves, 9 g/ha) was 100%. For the same molecule, the “visual evaluation of weed effects” value ([1]; ALOAE 3 leaves, 12 g/ha) was 100%, the “visual evaluation of weed effects” value ([1]; ALOAE 3 leaves, 15 g/ha) was 100% and the “visual evaluation of weed effects” value ([2]; 6 g/ha) was 95%. The “visual evaluation of weed effects” value ([2]; 9 g/ha) was 95%, the “visual evaluation of weed effects” value ([2]; 12 g/ha) was 98% and the “visual evaluation of weed effects” value ([2]; 15 g/ha) was 98%. For the same molecule, the “visual evaluation of weed effects” value ([3]; 6 g/ha) was 100%, the “visual evaluation of weed effects” value ([3]; 9 g/ha) was 100% and the “visual evaluation of weed effects” value ([3]; 12 g/ha) was 100%. For the same molecule, the “visual evaluation of weed effects” value ([3]; 15 g/ha) was 100%, the “visual evaluation of weed effects” value ([4]; 6 g/ha) was 0% and the “visual evaluation of weed effects” value ([4]; 9 g/ha) was 10%. The “visual evaluation of weed effects” value ([4]; 12 g/ha) was 10%, the “visual evaluation of weed effects” value ([4]; 15 g/ha) was 10% and the “visual evaluation of weed effects” value ([5]; 6 g/ha) was 30%. The “visual evaluation of weed effects” value ([5]; 9 g/ha) was 100%, the “visual evaluation of weed effects” value ([5]; 12 g/ha) was 100% and the “visual evaluation of weed effects” value ([5]; 15 g/ha) was 100%. For the same molecule, the “visual evaluation of weed effects” value ([6]; quizalofop-ethyl 6 g/ha) was 98%, the “visual evaluation of weed effects” value ([6]; quizalofop-ethyl 9 g/ha) was 100% and the “visual evaluation of weed effects” value ([6]; quizalofop-ethyl 12 g/ha) was 100%. For the same molecule, the “visual evaluation of weed effects” value ([6]; quizalofop-ethyl 15 g/ha) was 100%, the “visual evaluation of weed effects” value ([7]; CERAR 3˜4 leaves, quizalofop-ethyl 6 g/ha) was 0% and the “visual evaluation of weed effects” value ([7]; CERAR 3˜4 leaves, quizalofop-ethyl 9 g/ha) was 0%. The “visual evaluation of weed effects” value ([7]; CERAR 3˜4 leaves, quizalofop-ethyl 12 g/ha) was 0%, the “visual evaluation of weed effects” value ([7]; CERAR 3˜4 leaves, quizalofop-ethyl 15 g/ha) was 0% and the “visual evaluation of weed effects” value ([8]; GALAP 7˜8 leaves, quizalofop-ethyl 6 g/ha) was 0%. For the same molecule, the “visual evaluation of weed effects” value ([8]; GALAP 7˜8 leaves, quizalofop-ethyl 9 g/ha) was 0%, the “visual evaluation of weed effects” value ([8]; GALAP 7˜8 leaves, quizalofop-ethyl 12 g/ha) was 0% and the “visual evaluation of weed effects” value ([8]; GALAP 7˜8 leaves, quizalofop-ethyl 15 g/ha) was 0%. The “visual evaluation of weed effects” value ([9]; POAAN 2˜3 leaves, quizalofop-ethyl 6 g/ha) was 0%, the “visual evaluation of weed effects” value ([9]; POAAN 2˜3 leaves, quizalofop-ethyl 9 g/ha) was 0% and the “visual evaluation of weed effects” value ([9]; POAAN 2˜3 leaves, quizalofop-ethyl 12 g/ha) was 50%. For the same molecule, the “visual evaluation of weed effects” value ([9]; POAAN 2˜3 leaves, quizalofop-ethyl 15 g/ha) was 60%, the weed control ([10]; Poa annua) was “weak activity” and the weed control ([10]; most of grasses, even herbicide-resistant sclerochloa kengiana and Beckmannia syzigachne) was “excellent control”.

In the case of `O=C(O)Cn1c(=O)sc2cccc(Cl)c21` [benazolin], the “visual evaluation of weed effects” value ([11]; 75 g/ha) is reported as 0%, the “visual evaluation of weed effects” value ([11]; 150 g/ha) is reported as 0% and the “visual evaluation of weed effects” value ([11]; 225 g/ha) is reported as 0%. For the same molecule, the “visual evaluation of weed effects” value ([11]; 300 g/ha) was 0%, the “visual evaluation of weed effects” value ([12]; 75 g/ha) was 70% and the “visual evaluation of weed effects” value ([12]; 150 g/ha) was 90%. The “visual evaluation of weed effects” value ([12]; 225 g/ha) was 100%, the “visual evaluation of weed effects” value ([12]; 300 g/ha) was 100% and the “visual evaluation of weed effects” value ([13]; 75 g/ha) was 0%. The “visual evaluation of weed effects” value ([13]; 150 g/ha) was 0%, the “visual evaluation of weed effects” value ([13]; 225 g/ha) was 0% and the “visual evaluation of weed effects” value ([13]; 300 g/ha) was 0%. The “visual evaluation of weed effects” value ([14]; 75 g/ha) was 60%, the “visual evaluation of weed effects” value ([14]; 150 g/ha) was 90% and the “visual evaluation of weed effects” value ([14]; 225 g/ha) was 98%. For the same molecule, the “visual evaluation of weed effects” value ([14]; 300 g/ha) was 100%.

For `CCOCN(C(=O)CCl)c1c(C)cccc1CC` [acetochlor], the “visual evaluation of weed effects” value ([15]; 150 g/ha) was 60%, the “visual evaluation of weed effects” value ([15]; 300 g/ha) was 90% and the “visual evaluation of weed effects” value ([15]; 450 g/ha) was 95%. The “visual evaluation of weed effects” value ([15]; 600 g/ha) was 95%, the “visual evaluation of weed effects” value ([7]; CERAR, 150 g/ha) was 70% and the “visual evaluation of weed effects” value ([7]; CERAR, 300 g/ha) was 85%. For the same molecule, the “visual evaluation of weed effects” value ([7]; CERAR, 450 g/ha) was 85%, the “visual evaluation of weed effects” value ([7]; CERAR, 600 g/ha) was 85% and the “visual evaluation of weed effects” value ([8]; GALAP, 150 g/ha) was 40%. The “visual evaluation of weed effects” value ([8]; GALAP, 300 g/ha) was 50%, the “visual evaluation of weed effects” value ([8]; GALAP, 450 g/ha) was 60% and the “visual evaluation of weed effects” value ([8]; GALAP, 600 g/ha) was 70%. For the same molecule, the “visual evaluation of weed effects” value ([9]; POAAN, 150 g/ha) was 70%, the “visual evaluation of weed effects” value ([9]; POAAN, 300 g/ha) was 90% and the “visual evaluation of weed effects” value ([9]; POAAN, 450 g/ha) was 95%. For the same molecule, the “visual evaluation of weed effects” value ([9]; POAAN, 600 g/ha) was 95%.
